Structures are written as SMILES.

These results are taken from patent publication US20100021936A1, “Sensor for Spores” (priority 2007, published 2010).

Assay [1] relates to CwlJ knock-out strain of Bacillus megaterium. It counts as cell-based.
Assay [2] deals with Bacillus megaterium QM B1551 spores. It counts as cell-based.
Assay [3] relates to antibody-immobilised spores. It counts as cell-based.
The subject of assay [4] is B. megaterium QM B1551 "receptorless" spore. It counts as cell-based, Bacillus megaterium.

For `O=C(O)c1cccc(C(=O)O)n1` [Ca-DPA, dipicolinic acid], the “germination in response to exogenous Ca-DPA” value in assay [1] is listed as “does not germinate”. Moreover, the “concentration of Ca-DPA at which spores germinate” value in assay [2] is approximately 30 mM.
In the case of `C[C@H](N)C(=O)O` [L-alanine], in assay [3], the “germination response by micrographs” value is listed as “transition from phase bright spores to phase dark”. In addition, the “germination response of receptorless spores” value in assay [4] is reported as “lost the ability to respond”.
